Laboratory results from article PMC8062304 (Journal of the American Chemical Society, 2021).

Legend:
[1] = target: T1, carboxypeptidase Y (Saccharomyces cerevisiae, UniProt P00729); assay type: in vitro ADME; conditions: after 2 h at 95 °C; CFB-produced lasso peptide from native BGC; Figure S7
T1 sequence (P00729 112-532): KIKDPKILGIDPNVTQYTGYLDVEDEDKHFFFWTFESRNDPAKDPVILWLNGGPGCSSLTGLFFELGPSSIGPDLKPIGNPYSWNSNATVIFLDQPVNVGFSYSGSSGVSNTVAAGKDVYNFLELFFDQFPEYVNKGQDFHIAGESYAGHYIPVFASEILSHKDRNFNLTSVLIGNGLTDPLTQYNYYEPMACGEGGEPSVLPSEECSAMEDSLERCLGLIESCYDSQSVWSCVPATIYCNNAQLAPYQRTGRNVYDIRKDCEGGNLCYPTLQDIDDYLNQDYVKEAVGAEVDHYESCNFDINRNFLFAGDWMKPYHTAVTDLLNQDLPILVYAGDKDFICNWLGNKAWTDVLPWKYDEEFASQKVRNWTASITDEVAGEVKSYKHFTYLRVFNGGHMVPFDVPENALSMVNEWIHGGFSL

[2] = tested on: transcription/translation (production of the fluorescent protein mCherry); assay type: biochemical, E. coli; conditions: CFB-produced capistruin supplied at 10 µM; compared to a control that omitted capistruin; fluorescence reporter
[3] = cited from earlier work

| Substance | carboxypeptidase Y resistance after prolonged heating [1] | reduction in mCherry production [2] | conformation after extended exposure to organic solvent [3] |
| --- | --- | --- | --- |
| burhizin | retained protease resistance | – | – |
| capistruin (GTPGFQTPDARVISRFGFN; Capistruin; UniProt P0DQM5 29-47, looked up) | – | 66% | – |
| cellulassin | efficient carboxypeptidase Y digestion | – | – |
| fusilassin | efficient carboxypeptidase Y digestion | – | adopted a branched-cyclic form |
